According to patent publication US20090047304A1, “Composition For Body Fat Reduction” (priority 2004, published 2009):

Columns and labels:
[1] = cited from earlier work
[2] = Double-blind 6-week intake test of test capsules with walking exercise; rate of body fat and body weight measured; format: in vivo, human; settings: by intake of astaxanthin, 6 weeks
Protocol: This Hematococcus alga extract was formed into a capsule containing 6 mg of astaxanthin in terms of the free form (test capsule) and used for test. As placebo capsule (control capsule), a capsule containing 0 mg of astaxanthin and having the same shape was used for test.
32 persons to be tested who were healthy women 23-57 years old were divided at random into two groups i.e. test and control groups, each consisting of 16 persons. The allocation of persons to be tested into test and control groups was conducted in a double-blind method not so as to know persons to be tested and persons participated in test the fact that each of persons to be tested belongs to which group.
Each of persons to be tested in test group took two test capsules a day after supper while each of persons in control group took two placebo capsules a day after supper. The intake period of term (test period of term) was 6 weeks. The rate of body fat and body weight were measured at the beginning (0 week) and the completion (6 weeks) of test for all persons. The rate of body fat was measured with a weighing meter [TBF-511, a product of Tanita Co. Ltd.]
Exercise loaded on all persons to be tested in test period of term was walking. The quantity of exercise was determined by a maximum heart rate countering method. […]

[3] = Takahashi et al.; cited from earlier work

Q: With CC1=C(/C=C/C(C)=C/C=C/C(C)=C/C=C/C=C(C)/C=C/C=C(C)/C=C/C2=C(C)C(=O)C(O)CC2(C)C)C(C)(C)CC(O)C1=O (stereo not drawn) [astaxanthin, 3,3′-dihydroxy-β, β-carotene-4,4′-dione] as the compound, how does the “antioxidative action, times as strong as vitamin E” value ([1]; relative to vitamin E) read?
A: about 1000 times

Q: And the “antioxidative action, times as strong as β-carotene” value ([1]; relative to β-carotene)?
A: about 40 times

Q: What about the “rate of body fat (in words)” value [2] of the same compound?
A: decreases

Q: What about the mutagenicity [3] of the same compound?
A: has not been observed having any mutagenicity
